From publication PMC9481570, “A small molecule antagonist of SMN disrupts the interaction between SMN and RNAP II” (Nature Communications, 2022)
Where “and” joins values, the source holds several entries; their conditions need not be identical. Equal entries are not always repeated.

Key:
Assay in all cases: Affinity-purification and mass spectrometry (AP-MS) chemical proteomics, all proteins;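 for Difference: 200 µM free competitor with 20 µM biotin probe overnight in lysate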
Type in all cases: binding
[1] = biological target: T1, proteins displaced from immobilized biotin-Cmpd 1 pulldowns (U2OS cell lysate) (Homo sapiens, UniProt Q5T749); details: GN=KPRP (Q5T749)
T1 construct: endogenous in cells; host or cells: U2OS

[2] = biological target: T2, proteins displaced from immobilized biotin-Cmpd 1 pulldowns (U2OS cell lysate) (Homo sapiens, UniProt O43660); details: GN=PLRG1 (O43660)
T2 construct: endogenous in cells; host or cells: U2OS

[3] = biological target: T3, proteins displaced from immobilized biotin-Cmpd 1 pulldowns (U2OS cell lysate) (Homo sapiens, UniProt P22735); details: GN=TGM1 (P22735)
T3 construct: endogenous in cells; host or cells: U2OS

[4] = biological target: T4, proteins displaced from immobilized biotin-Cmpd 1 pulldowns (U2OS cell lysate) (Homo sapiens, UniProt O60832); details: GN=DKC1 (O60832)
T4 construct: endogenous in cells; host or cells: U2OS

[5] = biological target: T5, proteins displaced from immobilized biotin-Cmpd 1 pulldowns (U2OS cell lysate) (Homo sapiens, UniProt P62136); details: GN=PPP1CA (P62136)
T5 construct: endogenous in cells; host or cells: U2OS

[6] = biological target: T6, proteins displaced from immobilized biotin-Cmpd 1 pulldowns (U2OS cell lysate) (Homo sapiens, UniProt O95478); details: GN=NSA2 (O95478)
T6 construct: endogenous in cells; host or cells: U2OS

[7] = biological target: T7, proteins displaced from immobilized biotin-Cmpd 1 pulldowns (U2OS cell lysate) (Homo sapiens, UniProt Q9BSJ8); details: GN=ESYT1 (Q9BSJ8)
T7 construct: endogenous in cells; host or cells: U2OS

[8] = biological target: T8, proteins displaced from immobilized biotin-Cmpd 1 pulldowns (U2OS cell lysate) (Homo sapiens, UniProt P62910); details: GN=RPL32 (P62910)
T8 construct: endogenous in cells; host or cells: U2OS

[9] = biological target: T9, proteins displaced from immobilized biotin-Cmpd 1 pulldowns (U2OS cell lysate) (Homo sapiens, UniProt Q9UH17); details: GN=APOBEC3B (Q9UH17)
T9 construct: endogenous in cells; host or cells: U2OS

[10] = biological target: T10, proteins displaced from immobilized biotin-Cmpd 1 pulldowns (U2OS cell lysate) (Homo sapiens, UniProt Q9BUF5); details: GN=TUBB6 (Q9BUF5)
T10 construct: endogenous in cells; host or cells: U2OS
T10 sequence (Q9BUF5 whole entry): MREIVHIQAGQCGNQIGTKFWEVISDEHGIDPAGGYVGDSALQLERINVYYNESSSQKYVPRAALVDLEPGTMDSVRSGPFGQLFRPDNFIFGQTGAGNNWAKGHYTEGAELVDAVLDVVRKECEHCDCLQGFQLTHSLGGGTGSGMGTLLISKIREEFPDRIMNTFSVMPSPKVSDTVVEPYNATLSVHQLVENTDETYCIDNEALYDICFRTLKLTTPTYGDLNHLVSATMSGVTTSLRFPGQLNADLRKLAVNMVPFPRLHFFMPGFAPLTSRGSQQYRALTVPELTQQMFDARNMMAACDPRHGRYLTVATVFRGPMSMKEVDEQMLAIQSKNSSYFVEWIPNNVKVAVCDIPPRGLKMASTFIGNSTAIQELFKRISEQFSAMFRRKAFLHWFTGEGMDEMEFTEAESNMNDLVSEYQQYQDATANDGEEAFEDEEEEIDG

T1 sequence (Q5T749 whole entry): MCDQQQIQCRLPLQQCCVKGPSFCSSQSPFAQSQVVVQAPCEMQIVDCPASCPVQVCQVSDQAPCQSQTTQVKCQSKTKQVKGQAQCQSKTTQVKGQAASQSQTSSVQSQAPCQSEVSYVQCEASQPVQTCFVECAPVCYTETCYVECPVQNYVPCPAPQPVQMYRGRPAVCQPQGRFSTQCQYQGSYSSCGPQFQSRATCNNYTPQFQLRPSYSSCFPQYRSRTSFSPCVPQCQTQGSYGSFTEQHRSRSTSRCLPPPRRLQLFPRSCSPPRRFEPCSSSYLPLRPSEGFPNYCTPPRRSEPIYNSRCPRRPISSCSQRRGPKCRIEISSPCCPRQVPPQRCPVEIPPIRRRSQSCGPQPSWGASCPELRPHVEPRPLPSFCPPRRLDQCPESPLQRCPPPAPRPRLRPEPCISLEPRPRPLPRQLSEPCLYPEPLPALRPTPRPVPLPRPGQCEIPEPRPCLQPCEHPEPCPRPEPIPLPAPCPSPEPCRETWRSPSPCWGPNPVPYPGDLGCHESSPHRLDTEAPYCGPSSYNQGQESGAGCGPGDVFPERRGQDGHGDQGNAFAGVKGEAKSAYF
T4 sequence (O60832 whole entry): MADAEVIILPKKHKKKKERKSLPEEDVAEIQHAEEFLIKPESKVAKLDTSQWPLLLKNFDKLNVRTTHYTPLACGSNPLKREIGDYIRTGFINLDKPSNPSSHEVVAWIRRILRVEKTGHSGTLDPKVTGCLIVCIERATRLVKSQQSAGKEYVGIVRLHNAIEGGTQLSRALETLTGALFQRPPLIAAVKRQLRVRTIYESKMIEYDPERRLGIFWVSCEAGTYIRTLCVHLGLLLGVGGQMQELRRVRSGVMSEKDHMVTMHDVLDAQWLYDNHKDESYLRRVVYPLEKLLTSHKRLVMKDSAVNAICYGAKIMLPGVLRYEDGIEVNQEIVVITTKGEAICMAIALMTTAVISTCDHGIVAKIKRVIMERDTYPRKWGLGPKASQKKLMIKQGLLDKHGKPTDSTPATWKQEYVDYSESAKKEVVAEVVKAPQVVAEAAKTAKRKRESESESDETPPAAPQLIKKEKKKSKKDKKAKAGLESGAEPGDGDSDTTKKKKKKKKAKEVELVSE
T5 sequence (P62136 whole entry): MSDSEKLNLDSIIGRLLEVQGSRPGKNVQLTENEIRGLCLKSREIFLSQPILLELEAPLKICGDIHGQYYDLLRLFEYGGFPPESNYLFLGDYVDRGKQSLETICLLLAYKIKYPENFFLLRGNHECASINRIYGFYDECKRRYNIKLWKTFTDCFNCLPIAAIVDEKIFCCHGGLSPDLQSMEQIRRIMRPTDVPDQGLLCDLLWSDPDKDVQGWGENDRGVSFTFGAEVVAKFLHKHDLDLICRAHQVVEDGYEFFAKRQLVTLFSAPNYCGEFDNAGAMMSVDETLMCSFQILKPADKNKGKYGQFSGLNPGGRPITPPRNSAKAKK
T2 sequence (O43660 whole entry): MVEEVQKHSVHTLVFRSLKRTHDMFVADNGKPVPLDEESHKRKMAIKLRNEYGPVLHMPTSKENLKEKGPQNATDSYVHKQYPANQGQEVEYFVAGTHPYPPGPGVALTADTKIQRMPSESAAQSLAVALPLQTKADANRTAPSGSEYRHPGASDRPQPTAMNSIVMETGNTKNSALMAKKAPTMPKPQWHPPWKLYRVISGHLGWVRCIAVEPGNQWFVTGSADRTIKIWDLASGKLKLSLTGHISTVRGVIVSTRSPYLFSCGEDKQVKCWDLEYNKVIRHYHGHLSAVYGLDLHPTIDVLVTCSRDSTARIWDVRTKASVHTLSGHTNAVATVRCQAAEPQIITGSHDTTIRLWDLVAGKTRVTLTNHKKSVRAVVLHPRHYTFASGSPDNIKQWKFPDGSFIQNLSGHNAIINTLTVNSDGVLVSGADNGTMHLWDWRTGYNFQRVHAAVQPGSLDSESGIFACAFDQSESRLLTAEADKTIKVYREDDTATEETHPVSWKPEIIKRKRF
T9 sequence (Q9UH17 whole entry): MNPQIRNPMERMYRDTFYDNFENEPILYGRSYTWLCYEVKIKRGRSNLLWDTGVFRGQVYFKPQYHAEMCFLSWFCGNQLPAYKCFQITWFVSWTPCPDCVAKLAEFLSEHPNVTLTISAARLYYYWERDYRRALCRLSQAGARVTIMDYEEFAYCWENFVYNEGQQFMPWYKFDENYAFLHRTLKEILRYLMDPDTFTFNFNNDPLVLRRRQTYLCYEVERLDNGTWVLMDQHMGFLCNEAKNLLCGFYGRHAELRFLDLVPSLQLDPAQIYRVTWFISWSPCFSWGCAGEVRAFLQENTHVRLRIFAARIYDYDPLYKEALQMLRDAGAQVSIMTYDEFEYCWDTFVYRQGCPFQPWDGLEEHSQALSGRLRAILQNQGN
T3 sequence (P22735 whole entry): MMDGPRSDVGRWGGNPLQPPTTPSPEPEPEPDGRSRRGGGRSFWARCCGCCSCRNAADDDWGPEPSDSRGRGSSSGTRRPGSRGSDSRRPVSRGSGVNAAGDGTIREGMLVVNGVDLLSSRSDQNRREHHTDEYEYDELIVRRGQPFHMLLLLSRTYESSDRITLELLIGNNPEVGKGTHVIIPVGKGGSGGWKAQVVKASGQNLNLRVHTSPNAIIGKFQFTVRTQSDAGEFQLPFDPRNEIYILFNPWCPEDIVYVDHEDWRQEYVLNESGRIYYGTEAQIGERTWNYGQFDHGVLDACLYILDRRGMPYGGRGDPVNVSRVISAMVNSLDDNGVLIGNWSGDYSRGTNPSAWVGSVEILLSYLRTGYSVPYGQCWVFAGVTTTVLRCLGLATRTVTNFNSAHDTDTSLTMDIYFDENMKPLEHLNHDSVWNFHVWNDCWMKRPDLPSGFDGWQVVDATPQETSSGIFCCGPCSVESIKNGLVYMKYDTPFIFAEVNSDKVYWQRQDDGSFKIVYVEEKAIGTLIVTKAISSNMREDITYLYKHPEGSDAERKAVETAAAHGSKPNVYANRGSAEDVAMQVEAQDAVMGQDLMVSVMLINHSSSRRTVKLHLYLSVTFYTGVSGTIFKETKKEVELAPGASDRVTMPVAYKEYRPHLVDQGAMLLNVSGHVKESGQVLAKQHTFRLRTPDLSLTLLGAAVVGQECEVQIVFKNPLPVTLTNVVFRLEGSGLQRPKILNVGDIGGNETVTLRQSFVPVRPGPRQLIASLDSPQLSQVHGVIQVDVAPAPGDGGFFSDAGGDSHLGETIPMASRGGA
T7 sequence (Q9BSJ8 whole entry): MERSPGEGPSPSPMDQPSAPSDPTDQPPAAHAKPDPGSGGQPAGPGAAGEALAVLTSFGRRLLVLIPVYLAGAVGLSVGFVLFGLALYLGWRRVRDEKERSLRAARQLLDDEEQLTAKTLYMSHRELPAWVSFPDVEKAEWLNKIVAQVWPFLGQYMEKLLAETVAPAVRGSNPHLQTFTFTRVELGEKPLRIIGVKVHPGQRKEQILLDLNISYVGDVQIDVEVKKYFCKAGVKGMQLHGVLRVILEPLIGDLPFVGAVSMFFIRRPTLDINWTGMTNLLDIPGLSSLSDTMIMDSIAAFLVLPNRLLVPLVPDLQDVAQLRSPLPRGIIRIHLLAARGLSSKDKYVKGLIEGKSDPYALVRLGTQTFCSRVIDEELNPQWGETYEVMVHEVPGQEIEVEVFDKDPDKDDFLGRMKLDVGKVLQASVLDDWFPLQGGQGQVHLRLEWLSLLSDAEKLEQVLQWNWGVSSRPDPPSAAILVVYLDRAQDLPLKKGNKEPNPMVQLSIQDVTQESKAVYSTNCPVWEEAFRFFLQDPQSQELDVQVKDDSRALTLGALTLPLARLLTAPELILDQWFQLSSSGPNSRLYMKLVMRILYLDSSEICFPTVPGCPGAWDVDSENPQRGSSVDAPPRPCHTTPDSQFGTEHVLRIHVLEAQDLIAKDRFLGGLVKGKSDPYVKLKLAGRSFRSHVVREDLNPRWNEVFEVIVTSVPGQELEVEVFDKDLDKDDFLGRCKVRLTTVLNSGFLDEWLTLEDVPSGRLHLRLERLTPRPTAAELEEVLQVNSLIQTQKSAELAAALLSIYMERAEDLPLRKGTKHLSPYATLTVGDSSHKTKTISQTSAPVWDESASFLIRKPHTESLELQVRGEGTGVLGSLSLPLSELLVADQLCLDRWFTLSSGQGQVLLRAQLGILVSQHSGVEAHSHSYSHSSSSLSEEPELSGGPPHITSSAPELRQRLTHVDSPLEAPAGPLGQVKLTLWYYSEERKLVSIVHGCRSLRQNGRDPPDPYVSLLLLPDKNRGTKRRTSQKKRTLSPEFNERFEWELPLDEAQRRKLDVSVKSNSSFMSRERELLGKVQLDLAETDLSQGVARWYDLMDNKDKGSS

Structure (SMILES): Cn1c2c(c(=N)c3c1CCC3)CCC2 [Compound 1, 4-methyl-2,3,4,5,6,7-hexahydrodicyclopenta[b,e]pyridin-8(1H)-imine]
- Difference ([1]; Cmpd minus DMSO, -LOG(P-value) 1.8417): -3.732
- iBAQ Cmpd ([1]; replicates 1-3): 15.9159 and 16.7213 and 14.3127
- Difference ([2]; Cmpd minus DMSO, -LOG(P-value) 0.874244): 2.0669
- iBAQ Cmpd ([2]; replicates 1-3): 19.5697 and 18.4715 and 18.0629
- Difference ([3]; Cmpd minus DMSO, -LOG(P-value) 1.15166): -2.41
- iBAQ Cmpd ([3]; replicates 1-3): 15.9988 and 17.3288 and 14.7232
- Difference ([4]; Cmpd minus DMSO, -LOG(P-value) 0.760368): 0.5453
- iBAQ Cmpd ([4]; replicates 1-3): 19.0033 and 19.8581 and 19.0089
- Difference ([5]; Cmpd minus DMSO, -LOG(P-value) 1.15373): 2.296
- iBAQ Cmpd ([5]; replicates 1-3): 15.2178 and 17.9982 and 17.5212
- Difference ([6]; Cmpd minus DMSO, -LOG(P-value) 0.709566): 1.456
- iBAQ Cmpd ([6]; replicates 1-3): 18.8418 and 18.1506 and 17.9444
- Difference ([7]; Cmpd minus DMSO, -LOG(P-value) 2.56654): 4.81
- iBAQ Cmpd ([7]; replicates 1-3): 19.5229 and 18.9864 and 18.8876
- Difference ([8]; Cmpd minus DMSO, -LOG(P-value) 0.742167): 3.21
- iBAQ Cmpd ([8]; replicates 1-3): 19.3082 and 19.1191 and 19.5272
- Difference ([9]; Cmpd minus DMSO, -LOG(P-value) 0.938202): -0.8112
- iBAQ Cmpd ([9]; replicates 1-3): 21.4277 and 21.5751 and 21.8529
- Difference ([10]; Cmpd minus DMSO, -LOG(P-value) 2.60513): 3.82
- iBAQ Cmpd ([10]; replicates 1-3): 19.1705 and 17.8309 and 17.4529
